Laboratory results reported in the supplement of paper PMC10307832.

Legend:
Assay in all cases: relative viability (nuclei count vs DMSO), 5 days (fraction); higher = more cells survive
NCI-H1793 = tested on: NCI-H1793
Method in brief: (§1)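 Lung cancer cell lines were seeded in 1536-well plates and dosed by pin tool the next day, with either a single drug or a fixed anchor-drug dose combined with five library-drug doses (not always all listed) spaced in √10 steps. Five days later, one step fixed the cells and stained their nuclei (final 0.05% Triton X-100, 1% formaldehyde, 1 ug/ml Hoechst), and nuclei were counted on 4× images. Relative viability is the nuclei count in treated wells divided by the count in vehicle wells, and each value is the median of duplicate plates.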

NCI-H2170 = tested on: NCI-H2170
Method in brief: as §1

HCC-78 = tested on: HCC-78
Method in brief: as §1

SW 900 = tested on: SW 900
Method in brief: as §1

NCI-H2085 = tested on: NCI-H2085
Method in brief: as §1

COR-L 105 = tested on: COR-L 105
Method in brief: as §1

NCI-H1944 = tested on: NCI-H1944
Method in brief: as §1

NCI-H1666 = tested on: NCI-H1666
Method in brief: as §1

EPLC-272H = tested on: EPLC-272H
Method in brief: as §1

NCI-H358 = tested on: NCI-H358
Method in brief: as §1

NCI-H1915 = tested on: NCI-H1915
Method in brief: as §1

SK-LU-1 = tested on: SK-LU-1
Method in brief: as §1

NCI-H460 = tested on: NCI-H460
Method in brief: as §1

LC-2-ad = tested on: LC-2-ad
Method in brief: as §1

A-427 = tested on: A-427
Method in brief: as §1

UMC-11 = tested on: UMC-11
Method in brief: as §1

HOP-62 = tested on: HOP-62
Method in brief: as §1

LXF-289 = tested on: LXF-289
Method in brief: as §1

HCC-366 = tested on: HCC-366
Method in brief: as §1

LU99A = tested on: LU99A
Method in brief: as §1

NCI-H2009 = tested on: NCI-H2009
Method in brief: as §1

## Nc1ccn([C@@H]2O[C@H](CO)[C@@H](O)[C@@H]2O)c(=O)n1 [Cytarabine] + COc1cc2c(Oc3ccc(NC(=O)C4(C(=O)Nc5ccc(F)cc5)CC4)cc3F)ccnc2cc1OCCCN1CCOCC1 [Foretinib] (partner 0.25 µM)
NCI-H1793; first compound 0.005 µM
  relative viability: 0.812
NCI-H1793; first compound 0.01581 µM
  relative viability: 0.684
NCI-H1793; first compound 0.05 µM
  relative viability: 0.683
NCI-H1793; first compound 0.1581 µM
  relative viability: 0.545
NCI-H1793; first compound 0.5 µM
  relative viability: 0.494
NCI-H2170; first compound 0.005 µM
  relative viability: 0.736
NCI-H2170; first compound 0.01581 µM
  relative viability: 0.458
NCI-H2170; first compound 0.05 µM
  relative viability: 0.672
NCI-H2170; first compound 0.1581 µM
  relative viability: 0.515
NCI-H2170; first compound 0.5 µM
  relative viability: 0.569
HCC-78; first compound 0.005 µM
  relative viability: 0.601
HCC-78; first compound 0.01581 µM
  relative viability: 0.482
HCC-78; first compound 0.05 µM
  relative viability: 0.524
HCC-78; first compound 0.1581 µM
  relative viability: 0.378
HCC-78; first compound 0.5 µM
  relative viability: 0.372
SW 900; first compound 0.005 µM
  relative viability: 0.688
SW 900; first compound 0.01581 µM
  relative viability: 0.569
SW 900; first compound 0.05 µM
  relative viability: 0.329
SW 900; first compound 0.1581 µM
  relative viability: 0.21
SW 900; first compound 0.5 µM
  relative viability: 0.114
NCI-H2085; first compound 0.005 µM
  relative viability: 0.994
NCI-H2085; first compound 0.01581 µM
  relative viability: 0.847
NCI-H2085; first compound 0.05 µM
  relative viability: 0.75
NCI-H2085; first compound 0.1581 µM
  relative viability: 0.555
NCI-H2085; first compound 0.5 µM
  relative viability: 0.475
COR-L 105; first compound 0.005 µM
  relative viability: 0.972
COR-L 105; first compound 0.01581 µM
  relative viability: 1.29
COR-L 105; first compound 0.05 µM
  relative viability: 0.825
COR-L 105; first compound 0.1581 µM
  relative viability: 0.812
COR-L 105; first compound 0.5 µM
  relative viability: 0.438
NCI-H1944; first compound 0.005 µM
  relative viability: 0.633
NCI-H1944; first compound 0.01581 µM
  relative viability: 0.438
NCI-H1944; first compound 0.05 µM
  relative viability: 0.331
NCI-H1944; first compound 0.1581 µM
  relative viability: 0.223
NCI-H1944; first compound 0.5 µM
  relative viability: 0.168
NCI-H1666; first compound 0.005 µM
  relative viability: 0.921
NCI-H1666; first compound 0.01581 µM
  relative viability: 0.869
NCI-H1666; first compound 0.05 µM
  relative viability: 0.799
NCI-H1666; first compound 0.1581 µM
  relative viability: 0.549
NCI-H1666; first compound 0.5 µM
  relative viability: 0.541
EPLC-272H; first compound 0.005 µM
  relative viability: 0.639
EPLC-272H; first compound 0.01581 µM
  relative viability: 0.477
EPLC-272H; first compound 0.05 µM
  relative viability: 0.461
EPLC-272H; first compound 0.1581 µM
  relative viability: 0.196
EPLC-272H; first compound 0.5 µM
  relative viability: 0.234
NCI-H358; first compound 0.005 µM
  relative viability: 0.612
NCI-H358; first compound 0.01581 µM
  relative viability: 0.603
NCI-H358; first compound 0.05 µM
  relative viability: 0.3
NCI-H358; first compound 0.1581 µM
  relative viability: 0.131
NCI-H358; first compound 0.5 µM
  relative viability: 0.126
NCI-H1915; first compound 0.005 µM
  relative viability: 1.11
NCI-H1915; first compound 0.01581 µM
  relative viability: 1.02
NCI-H1915; first compound 0.05 µM
  relative viability: 1.01
NCI-H1915; first compound 0.1581 µM
  relative viability: 0.771
NCI-H1915; first compound 0.5 µM
  relative viability: 0.757
SK-LU-1; first compound 0.005 µM
  relative viability: 0.735
SK-LU-1; first compound 0.01581 µM
  relative viability: 0.759
SK-LU-1; first compound 0.05 µM
  relative viability: 0.538
SK-LU-1; first compound 0.1581 µM
  relative viability: 0.302
SK-LU-1; first compound 0.5 µM
  relative viability: 0.23
NCI-H460; first compound 0.005 µM
  relative viability: 1.05
NCI-H460; first compound 0.01581 µM
  relative viability: 0.837
NCI-H460; first compound 0.05 µM
  relative viability: 0.492
NCI-H460; first compound 0.1581 µM
  relative viability: 0.0445
NCI-H460; first compound 0.5 µM
  relative viability: 0.0401
LC-2-ad; first compound 0.005 µM
  relative viability: 0.899
LC-2-ad; first compound 0.01581 µM
  relative viability: 0.823
LC-2-ad; first compound 0.05 µM
  relative viability: 0.839
LC-2-ad; first compound 0.1581 µM
  relative viability: 0.62
LC-2-ad; first compound 0.5 µM
  relative viability: 0.41
A-427; first compound 0.005 µM
  relative viability: 0.975
A-427; first compound 0.01581 µM
  relative viability: 0.399
A-427; first compound 0.05 µM
  relative viability: 0.296
A-427; first compound 0.1581 µM
  relative viability: 0.182
A-427; first compound 0.5 µM
  relative viability: 0.176
UMC-11; first compound 0.005 µM
  relative viability: 0.653
UMC-11; first compound 0.01581 µM
  relative viability: 0.63
UMC-11; first compound 0.05 µM
  relative viability: 0.45
UMC-11; first compound 0.1581 µM
  relative viability: 0.349
UMC-11; first compound 0.5 µM
  relative viability: 0.261
HOP-62; first compound 0.005 µM
  relative viability: 0.904
HOP-62; first compound 0.01581 µM
  relative viability: 0.875
HOP-62; first compound 0.05 µM
  relative viability: 0.45
HOP-62; first compound 0.1581 µM
  relative viability: 0.137
HOP-62; first compound 0.5 µM
  relative viability: 0.142
LXF-289; first compound 0.005 µM
  relative viability: 0.939
LXF-289; first compound 0.01581 µM
  relative viability: 0.961
LXF-289; first compound 0.05 µM
  relative viability: 0.749
LXF-289; first compound 0.1581 µM
  relative viability: 0.412
LXF-289; first compound 0.5 µM
  relative viability: 0.299
HCC-366; first compound 0.005 µM
  relative viability: 0.991
HCC-366; first compound 0.01581 µM
  relative viability: 0.831
HCC-366; first compound 0.05 µM
  relative viability: 0.584
HCC-366; first compound 0.1581 µM
  relative viability: 0.119
HCC-366; first compound 0.5 µM
  relative viability: 0.105
LU99A; first compound 0.005 µM
  relative viability: 0.762
LU99A; first compound 0.01581 µM
  relative viability: 0.773
LU99A; first compound 0.05 µM
  relative viability: 0.809
LU99A; first compound 0.1581 µM
  relative viability: 0.74
LU99A; first compound 0.5 µM
  relative viability: 0.648
NCI-H2009; first compound 0.005 µM
  relative viability: 1.23
NCI-H2009; first compound 0.01581 µM
  relative viability: 1.22
NCI-H2009; first compound 0.05 µM
  relative viability: 1.19
NCI-H2009; first compound 0.1581 µM
  relative viability: 0.981
NCI-H2009; first compound 0.5 µM
  relative viability: 0.503
